How the values were obtained:
Format in all cases: functional
MDCK = assay: Lethal dose for Proliferation of […] after 24 hr of treatment upon incubation for 6 h; conditions: Canis lupus familiaris, read-out: LD50 (the source's name)
HaCaT [1] = assay: Lethal dose for Proliferation of human HaCaT cells after 24 hr of treatment upon incubation for 24 h; conditions: for CC50: read-out: LD50 (the source's name)
HaCaT [2] = assay: Lethal dose for Proliferation of human HaCaT cells after 24 hr of treatment upon incubation for 6 h; conditions: read-out: LD50 (the source's name)

Compound	CC50 (MDCK)	CC50 (HaCaT [1])	further results
CCCCCCCCCCCCCCCCCCOCC(COP(=O)([O-])OCC[N+](C)(C)C)OC (stereo unspecified) [EDELFOSINE]	90 µM		
CCCCCCCCCCCCCCCCCCOC[C@H](COP(=O)([O-])OCC[N+](C)(C)C)OC1OC(O)C(O)C(O)C1N (stereo partly specified)		30 µM	
CCCCCCCCCCCCCCCCOP(=O)([O-])OCC[N+](C)(C)C [MILTEFOSINE]	200 µM		LD10 (HaCaT [1]): 20 µmol/L
CCCCCCCCCCCCCCCCCCOC[C@H](COP(=O)([O-])OCC[N+](C)(C)C)O[C@@H]1O[C@H](CO)[C@@H](O)[C@H](O)[C@H]1O			CC50 (HaCaT [2]): 9 µM
CCCCCCCCCCCCCCCCCCOC[C@H](COP(=O)([O-])OCC[N+](C)(C)C)OC1OC(O)C(O)C(O)C1NC1C(=O)C(C)=C(C)C1=O (stereo partly specified)		5.5 µM	

Reference: ChEMBL document CHEMBL1141129, “Glucosamine-glycerophospholipids that activate cell-matrix adhesion and migration” (2005)
